Assay [1] deals with T1, T4 lysozyme L99A/M102Q (Enterobacteria phage T4, UniProt P00720, C54T/C97A/L99A/M102Q). The assay is described as follows: biochemical. The format is binding.
Assay [2] has as its target T1, T4 lysozyme L99A/M102Q. The format is binding.
Assay [3] has as its target T1, T4 lysozyme L99A/M102Q. The note with it: cited from earlier work.
The mark [4] stands for this setting: free energy of binding by ITC at 10°C, pH 6.8, prospective set.

pKd: −log10 of the molar value. Entries after “also recorded” stand apart in the source; their conditions may differ. Where two headings read alike, the source gives them in different places.

In the case of `CCOC1CCC=CO1` (stereo not drawn) [2-ethoxy-3,4-dihydro-2h-pyran], on T4 lysozyme L99A/M102Q [1], the “binding free energy, estimated” value was -3.88 to -2.59 kcal/mol and the “ΔGb,exp (binding class)” value is “weak”.

Regarding `CCCc1ccccc1O` [2-propylphenol], at T4 lysozyme L99A/M102Q [2], the “ΔGb,exp” value is -5.33 ± 0.05 kcal/mol.

Regarding `O=Nc1ccccc1` [nitrosobenzene], at T4 lysozyme L99A/M102Q [1], the “binding free energy, estimated” value was -3.88 to -2.59 kcal/mol and the “ΔGb,exp (binding class)” value is on record as “weak”. Also, the pKd (in general, the Kd on a negative log10 scale, so that one unit is a factor of ten) on T4 lysozyme L99A/M102Q [1] (affinity estimated from concentration where significant Tm upshift was observed) was approximately 3.00.

Turning to `Cc1ccc(Cl)cc1O` [5-chloro-2-methylphenol], the “ΔGb,exp” value on T4 lysozyme L99A/M102Q [2] is -5.04 ± 0.07 kcal/mol.

As to `CCc1ccccc1O` [2-ethylphenol], on T4 lysozyme L99A/M102Q [2], the “ΔGb,exp” value is -4.57 ± 0.11 kcal/mol.

`CCOc1ccccc1O` [2-ethoxyphenol]: on T4 lysozyme L99A/M102Q [2], the “ΔGb,exp” value was -4.02 ± 0.03 kcal/mol.

Regarding `Nc1ccccc1O` [2-aminophenol], the “binding to L99A/M102Q (known)” value at T4 lysozyme L99A/M102Q [3] is recorded as “non-binder; also recorded: does not bind detectably”.

Consider `c1cc2c([nH]1)CCCC2` [4,5,6,7-tetrahydroindole], for which the “ΔGb,exp” value at T4 lysozyme L99A/M102Q [2] (setting [4]) was -4.61 ± 0.09 kcal/mol.

As to `Clc1cn[nH]c1` [4-chloro-1h-pyrazole], on T4 lysozyme L99A/M102Q [1], the “binding free energy, estimated” value is -3.88 to -2.59 kcal/mol and the “ΔGb,exp (binding class)” value is listed as “weak”.

Regarding `Oc1ccccc1O` [catechol, reference compound], the “ΔGb,exp” value at T4 lysozyme L99A/M102Q [2] was -4.16 ± 0.03 kcal/mol. Also, the “binding to L99A/M102Q (known)” value on T4 lysozyme L99A/M102Q [3] (known ligands and non-binders) is on record as “is a ligand”.

With `c1cc2sccc2s1` [thieno[3,2-b]thiophene], on T4 lysozyme L99A/M102Q [2] (setting [4]), the “ΔGb,exp” value was -4.67 ± 0.17 kcal/mol.

Turning to `C=Cc1ccncc1` [4-vinylpyridine], the “binding to L99A/M102Q (known)” value on T4 lysozyme L99A/M102Q [3] (known ligands and non-binders) is “non-binder”.

Take `Oc1ccccc1` [phenol]: the “ΔGb,exp” value on T4 lysozyme L99A/M102Q [3] is -5.24 kcal/mol.

Consider `CC(=O)OCc1ccccc1` [benzyl acetate], for which the “ΔGb,exp” value on T4 lysozyme L99A/M102Q [2] (setting [4]) is -4.48 ± 0.16 kcal/mol.

With `Cc1ccccc1O` [2-methylphenol], the “ΔGb,exp” value at T4 lysozyme L99A/M102Q [2] is -4.44 ± 0.11 kcal/mol.

`O=[N+]([O-])c1cccs1` [2-nitrothiophene]: the “ΔGb,exp” value at T4 lysozyme L99A/M102Q [2] (setting [4]) is -4.85 ± 0.25 kcal/mol.

The values are drawn from publication PMC2788029 (Journal of molecular biology, 2009).
